Data on 24 compounds can be found in ChEMBL document CHEMBL3751767, “Synthesis, in vitro and in vivo anticancer activities of novel 4-substituted 1,2-bis(4-chlorophenyl)-pyrazolidine-3,5-dione derivatives” (Medchemcomm, 2015).

Test [1] can be described thus: Cytotoxicity against human MGC803 cells assessed as reduction in cell viability after 72 hrs by MTT assay. Type of test: functional, cell-based. As to conditions: MGC-803, 72 h. On the technique in general: Tetrazolium assays rely on reduction of a dye to a coloured formazan, in cell work by metabolically active cells.
Test [2] is described as follows: Cytotoxicity against human EC109 cells assessed as reduction in cell viability after 72 hrs by MTT assay. Type of test: functional, cell-based. As to conditions: ECa-109, 72 h.
The next test has as its system MCF7. Put plainly: Cytotoxicity against human MCF7 cells assessed as reduction in cell viability after 72 hrs by MTT assay. Type of test: functional, cell-based. As to conditions: MCF7, 72 h.
Test [3] can be described thus: Cytotoxicity against human SMMC7721 cells assessed as reduction in cell viability after 72 hrs by MTT assay. The class given is functional, cell-based. As to conditions: SMMC-7721, 72 h.
A short description of test [4]: Antitumor activity against human MGC803 cells xenografted in nude mouse assessed as reduction in tumor weight at 30 mg/kg, po qd for 28 days relative to control. The class given is functional, MGC-803. More on the design: scale not given: the % may be the effect or the level left. Background: A xenograft is tissue or cells of one species grown in another, often human tumour cells in immunodeficient mice.

As a reminder, the IC50 is the concentration that inhibits the measured activity by half. Turning to `COc1cccc(C=C2C(=O)N(c3ccc(Cl)cc3)N(c3ccc(Cl)cc3)C2=O)c1OC`, the IC50 in test [1] is 29.6 µM; in test [2], 6.8 µM; in the test on MCF7 it was 11.9 µM; in test [3] it was 14.1 µM.

Consider `CC(=C1C(=O)N(c2ccc(Cl)cc2)N(c2ccc(Cl)cc2)C1=O)c1ccc(O)cc1`, for which the IC50 in test [1] was 42.8 µM; in test [2], 55.6 µM; with MCF7 it was 76.5 µM; in test [3] it was 57 µM.

Consider `COc1ccc(C=C2C(=O)N(c3ccc(Cl)cc3)N(c3ccc(Cl)cc3)C2=O)cc1`, for which the IC50 (in test [1]; in test [2]; in the test on MCF7; in test [3]) was over 128 µM in each case.

With `O=C1C(=Cc2cccc(Cl)c2)C(=O)N(c2ccc(Cl)cc2)N1c1ccc(Cl)cc1`, the half-inhibitory concentration (IC50) was found to be 14.4 µM in test [1], 22.6 µM in test [2], 18.3 µM in the test on MCF7 and 20.2 µM in test [3].

For the compound `O=C1C(=Cc2ccc(O)cc2)C(=O)N(c2ccc(Cl)cc2)N1c1ccc(Cl)cc1`, the IC50 in test [1] is 19.5 µM; in test [2], 34.2 µM; with MCF7, 23.2 µM; in test [3], 20.6 µM.

`COc1cc(C=C2C(=O)N(c3ccc(Cl)cc3)N(c3ccc(Cl)cc3)C2=O)ccc1O`: the concentration for half-maximal inhibition (IC50) in test [1] came to 21.8 µM; in test [2], 7.1 µM; with MCF7, 22.8 µM; in test [3] it was 64.9 µM.

In the case of `O=C1C(=Cc2ccc(F)c(F)c2)C(=O)N(c2ccc(Cl)cc2)N1c1ccc(Cl)cc1`, the half-inhibitory concentration (IC50) in test [1] amounted to 35.7 µM; in test [2], 13.1 µM; in the test with MCF7, 22 µM; in test [3], 35.8 µM.

On to `COc1ccccc1C=C1C(=O)N(c2ccc(Cl)cc2)N(c2ccc(Cl)cc2)C1=O`, for which the IC50 in test [1] worked out at 28.6 µM; in test [2], 30.4 µM; in the test with MCF7, 26.3 µM; in test [3], 25.8 µM.

Take `COc1cc(C=C2C(=O)N(c3ccc(Cl)cc3)N(c3ccc(Cl)cc3)C2=O)cc(OC)c1OC`: the IC50 was determined as 17.3 µM in test [1], 10.1 µM in test [2], 16.2 µM in the test on MCF7 and 29.5 µM in test [3].

As to `O=C1C(=Cc2ccc(F)cc2)C(=O)N(c2ccc(Cl)cc2)N1c1ccc(Cl)cc1`, the IC50 amounted to 26 µM in test [1], 35.6 µM in test [2], 31.4 µM in the test on MCF7 and 23.3 µM in test [3].

Take `O=C1C(=Cc2ccco2)C(=O)N(c2ccc(Cl)cc2)N1c1ccc(Cl)cc1`: the IC50 in test [1] was 12.8 µM; in test [2] it was 14.3 µM; in the test on MCF7 it was 20.3 µM; in test [3], 19.5 µM.

`COc1cccc(C=C2C(=O)N(c3ccc(Cl)cc3)N(c3ccc(Cl)cc3)C2=O)c1O`: the IC50 in test [1] was found to be 24.3 µM; in test [2], 39 µM; in the test with MCF7, 26.7 µM; in test [3], 64.9 µM.

`O=C1C(=Cc2ccc(Cl)cc2Cl)C(=O)N(c2ccc(Cl)cc2)N1c1ccc(Cl)cc1`: the concentration for half-maximal inhibition (IC50) in test [1] was over 128 µM; in test [2] it was 60.2 µM; with MCF7, over 128 µM; in test [3], over 128 µM.

Regarding `O=c1[nH]cc(F)c(=O)[nH]1` [FLUOROURACIL], the IC50 in test [1] was found to be 9.2 µM; in test [2] it was 15.9 µM; in the test with MCF7, 13.5 µM; in test [3], 14.2 µM.

Consider `CCCCCOC(=O)Nc1nc(=O)n([C@@H]2O[C@H](C)[C@@H](O)[C@H]2O)cc1F` [CAPECITABINE], for which the Activity in test [4] came out at 62.7%.

`CC(C)=C1C(=O)N(c2ccc(Cl)cc2)N(c2ccc(Cl)cc2)C1=O`: the IC50 in test [1] was 39 µM; in test [2], 42.1 µM; with MCF7, 39.6 µM; in test [3], 45.6 µM.

As to `CN(C)c1ccc(C=C2C(=O)N(c3ccc(Cl)cc3)N(c3ccc(Cl)cc3)C2=O)cc1`, the IC50 is 80.2 µM in test [1], over 128 µM in test [2], over 128 µM in the test with MCF7 and over 128 µM in test [3].

Turning to `O=C1C(=Cc2ccccc2)C(=O)N(c2ccc(Cl)cc2)N1c1ccc(Cl)cc1`, the IC50 amounted to 27.2 µM in test [1], 32.7 µM in test [2], 20.2 µM with MCF7 and 26.2 µM in test [3].

With `CCC(C)=C1C(=O)N(c2ccc(Cl)cc2)N(c2ccc(Cl)cc2)C1=O`, the IC50 in test [1] came to 66.5 µM; in test [2], 41.1 µM; in the test on MCF7, 41.6 µM; in test [3], 49.2 µM.

In the case of `O=C1C(=Cc2c[nH]c3ccccc23)C(=O)N(c2ccc(Cl)cc2)N1c1ccc(Cl)cc1`, the IC50 came out at 21.8 µM in test [1], 23.4 µM in test [2], 34.2 µM with MCF7 and 19.6 µM in test [3].

Take `COc1ccc(C=C2C(=O)N(c3ccc(Cl)cc3)N(c3ccc(Cl)cc3)C2=O)cc1OC`: the IC50 (in test [1]; in test [2]; in the test on MCF7; in test [3]) was over 128 µM each time.

As for `O=C1C(=Cc2ccc(Cl)cc2)C(=O)N(c2ccc(Cl)cc2)N1c1ccc(Cl)cc1`, the half-inhibitory concentration (IC50) in test [1] came out at 32.6 µM; in test [2] it was 17.3 µM; in the test on MCF7 it was 28.5 µM; in test [3], 30.9 µM.

Take `O=C1C(=Cc2ccc(Br)cc2)C(=O)N(c2ccc(Cl)cc2)N1c1ccc(Cl)cc1`: the IC50 in test [1] stood at 16.9 µM; in test [2], 12.3 µM; in the test on MCF7 it was 30.4 µM; in test [3], 16.6 µM.

Take `COc1cccc(C=C2C(=O)N(c3ccc(Cl)cc3)N(c3ccc(Cl)cc3)C2=O)c1`: the IC50 was 26.6 µM in test [1], 29 µM in test [2], 18.1 µM in the test on MCF7 and 30.2 µM in test [3].
